Experimental data reported in patent publication US20260355199A1, “COMPOSITIONS AND METHODS FOR TREATING OR PREVENTING NONALCOHOLIC STEATOHEPATITIS (NASH), ANOREXIA, DEPRESSION, ENDOMETRIOSIS, AND OTHER DISEASES OR DISORDERS” (priority 2022, published 2026).
Entries after “also recorded” stand apart in the source; their conditions may differ.

Key:
murine model of NASH = experiment: High fat high sugar diet-induced murine model of NASH; format: in vivo, mouse; details: for fasting glucose / glucose tolerance: week 12; for plasma AST: week 13
Description: As TET3-positive macrophages were also detected in human NASH (FIG. 24B), studies were performed to investigate whether depleting these macrophages would reduce NASH progression. Despite the high efficiency (up to 90%) of the LysM-cre strain in manipulating macrophages originated from myeloid progenitors including those in the peritoneal cavity, peripheral blood and bone marrow, only ~40% of tissue resident macrophages derived from yolk sac (e.g., those in the liver and the spleen red pulp) were affected (Shi et al., 2018, Methods Mol Biol, 1784:263-275). While the inefficacy of the LysM-cre strain in depleting tissue resident macrophages has precluded using the Mye-Tet3 ko mice, potential effects of Bobcat339 in steatosis, inflammation, and fibrosis were assessed using a high fat high sugar diet-induced murine model of NASH (Ishimoto et al., 2013, Hepatology, 58:1632-1643; Kroh et al., 2020, Gastroenterol Res Pract, 7347068; Baiges-Gaya et al., 2021, J Nutr Biochem, 89:108559). As shown schematically in FIG. 29A, mice were placed on a standard chow diet (CD) (control group) or a western diet with 10% sucrose in drinking water (WD) for 8 weeks to induce an early NASH phenotype (Kroh et al., 2020, Gastroenterol Res Pract, 7347068). Then, these mice were therapeutically dosed intravenously once a week from week 8 through week 11 with either 2.5 mg/kg Bobcat339 (treatment group) or vehicle (model group) for a total of 13 weeks on diets. Mice were euthanized following a 12 h overnight fasting, and plasma and liver were harvested for analyses.
Then, these mice were therapeutically dosed intravenously once a week from week 8 through week 11 with either 3 mg/kg Bobcat339 (treatment group) or vehicle (model group) for a total of 13 weeks on diets. At the end of the study, mice were euthanized following a 12 h overnight fasting, and plasma and liver were harvested for analyses.
Male C57BL/6J mice of 6-weeks old were randomly divided into three groups, with each containing 5 animals. The control group were fed a standard chow diet (CD). The model group and the treatment group were fed a western diet (WD) (40 kcal % fat, 20 kcal % fructose, and 2 kcal % cholesterol, Research Diets, D09100301) supplemented with 10% sucrose in drinking water provided ad libitum. In the treatment group, Bobcat339 administration was initiated following 8 weeks of WD by tail vein injection at 2.5 mg/kg body weight once a week for 4 weeks. The control group and the model group received vehicle (DMSO) tail vein injections. […] After a total of 13 weeks on diets, mice were sacrificed following a 12 h overnight fasting, and plasma and liver were harvested for analyses.
GTT were performed following 16 h overnight fasting. Each animal received an i.p. injection of 2 g/kg of glucose (Sigma-Aldrich, G5767) in sterile saline. Blood glucose concentrations were measured using Contour next blood glucose meter (Ascensia Diabetes Care) via tail vein bleeding at the indicated time points after injection.
These were assessed using Triglyceride Content Assay Kit (Solarbio, BC0625) and Hydroxyproline Assay Kit (Sigma-Aldrich, MAK008-1KT), respectively.
Mouse liver samples were collected and fixed at 4 °C with 4% of phosphate buffered paraformaldehyde for 24 h. Fixed tissue specimens were embedded in paraffin and cut into […] tissue sections for histopathological analysis. Tissue sections were stained with Hematoxylin-Eosin according to standard protocols. For Sirius Red/Fast Green staining, slides were deparaffinized by heating at 65 °C for 60 min, followed by xylene wash 3 times 5 min each. The slides were then rehydrated in 100%, 90%, 80% and 70% ethanol for 5 min each, followed by ddH2O wash 2 times 5 min each. Then they were incubated in 0.04% Fast Green (Sigma-Aldrich, F7258) in saturated [COMPOUND LEFT OUT] for 15 min, washed with distilled water and then incubated in 0.1% Fast Green and 0.08% Sirius Red (Sigma-Aldrich, 365546) in saturated [COMPOUND LEFT OUT] for 30 min. […]

RAW 264.7 cells = experiment: TUNEL assay in RAW 264.7 cells; format: cell-based, mouse; details: RAW 264.7, 10 μM, 48 h
Description: For TET3 expression restoration experiments, cells seeded in 24-well plates were infected with Ad-GFP or Ad-TET3 at 4000 gc/cell. Following 16 h of infection, vehicle or Bobcat339 were added at a final concentration of 10 μM. Protein and RNA were isolated 48 hours later and analyzed.
These were performed using the In Situ Cell Death Detection Kit (Sigma Aldrich, 12156792910). Briefly, cells were fixed with 4% paraformaldehyde in PBS for 1 h at RT and rinsed with PBS, followed by permeabilization with 0.1% Triton X-100 in 0.1% sodium citrate for 2 min on ice. TUNEL reaction mixture was added and incubation was carried out at 37 °C for 60 min. DAPI was added to counter-stain the cells for 1 min. The slides were coverslipped and scoped using a Keyence BZ-X700 fluorescence microscope.

Nc1nc(=O)n(-c2cccc(-c3ccccc3)c2)cc1Cl [Bobcat339, 4-Amino-1-[1,1′-biphenyl]-3-yl-5-chloro-2(1H)-pyrimidinone]
NAS score (murine model of NASH; 2.5 mg/kg i.v. once a week): reduced NAS scores | TET3-expressing macrophages in liver (murine model of NASH; 2.5 mg/kg i.v. once a week): depleted after Bobcat339 treatment | fibrosis stage (murine model of NASH; 2.5 mg/kg i.v. once a week): a significant reduction in both the fibrosis stage and the hydroxyproline content | histological severity of steatosis and fibrosis (murine model of NASH; 2.5 mg/kg i.v. once a week): significantly reduced the severity of both steatosis and fibrosis | liver hydroxyproline content (murine model of NASH; 2.5 mg/kg i.v. once a week): a significant reduction in both the fibrosis stage and the hydroxyproline content | liver triglycerides (murine model of NASH; 2.5 mg/kg i.v. once a week): normalized liver triglycerides | liver-to-body weight ratio (murine model of NASH; 2.5 mg/kg i.v. once a week): decreased liver-to-body weight ratio | fasting glucose (murine model of NASH; 2.5 mg/kg i.v. once a week): a significant improvement | glucose tolerance (murine model of NASH; 2.5 mg/kg i.v. once a week): a significant improvement | plasma AST (murine model of NASH; 2.5 mg/kg i.v. once a week): normalized this marker | IL-1b and IL-6 in CD163+ macrophage-enriched areas of liver (murine model of NASH; 3 mg/kg i.v. once a week): reduced the expression of IL-1b and IL-6 | NAS score (murine model of NASH; 3 mg/kg i.v. once a week): reduced NAS scores | TET3-overexpressing CD163+ macrophages in liver (murine model of NASH; 3 mg/kg i.v. once a week): significantly reduced after Bobcat339 treatment | fibrosis stage (murine model of NASH; 3 mg/kg i.v. once a week): a significant reduction in both the fibrosis stage and hydroxyproline content | histological severity of steatosis and fibrosis (murine model of NASH; 3 mg/kg i.v. once a week): significantly reduced the severity of both steatosis and fibrosis | hydroxyproline content (murine model of NASH; 3 mg/kg i.v. once a week): a significant reduction in both the fibrosis stage and hydroxyproline content | liver triglycerides (murine model of NASH; 3 mg/kg i.v. once a week): normalized liver triglycerides | liver-to-body weight ratio (murine model of NASH; 3 mg/kg i.v. once a week): decreased liver-to-body weight ratio | fasting glucose (murine model of NASH; 3 mg/kg i.v. once a week): a significant improvement | glucose tolerance (murine model of NASH; 3 mg/kg i.v. once a week): a significant improvement | plasma AST (murine model of NASH; 3 mg/kg i.v. once a week): normalized this marker | apoptosis (TUNEL) (RAW 264.7 cells): induced apoptosis; also recorded: a significant increase in apoptotic cell death | apoptosis (TUNEL) (RAW 264.7 cells; with Ad-TET3): reversed by overexpression of TET3; also recorded: not seen when TET3 was overexpressed
